Values quoted from earlier work, collected in patent publication US11590100B2, “Composition for buccal or sublingual administration of cannabis extract and methods for making same” (PANAXIA PHARMACEUTICAL INDUSTRIES LTD., priority 2017, dated 2023).

For `CCCCCc1cc(O)c2c(c1)OC(C)(C)[C@@H]1CCC(C)=C[C@@H]21` [THC, Delta-9-tetrahydrocannabinol], the peak effect (after oral administration) is listed as 2 to 4 h, the absorbed (after single oral doses) is listed as 90-95% and the “administered dose reaching the systemic circulation” value (oral, first pass hepatic metabolism and poor aqueous solubility) is listed as 10-20%.
